Measurements: ChEMBL document CHEMBL3044736, “Synthesis, characterization, solvatochromic properties, and antimicrobial evaluation of 5-acetyl-2-thioxo-dihydro-pyrimidine-4,6-dione-based chalcones” (2013)
Values after ≈ are worked out from the molar mass of the structure shown.

Experiments:
Assay type in all cases: functional
Penicillium [1] = assay: Antimicrobial activity against Penicillium wild strain assessed as diameter of growth inhibition zone at 250 ug/ml after 48-96 hr by agar cup diffusion method; settings: read-out: DIZ
Penicillium [2] = assay: Antimicrobial activity against Penicillium wild strain assessed as diameter of growth inhibition zone at 100 ug/ml after 48-96 hr by agar cup diffusion method; settings: read-out: DIZ
Trichophyton rubrum [3] = assay: Antimicrobial activity against Trichophyton rubrum MTCC 296 assessed as diameter of growth inhibition zone at 100 ug/ml after 48-96 hr by agar cup diffusion method; settings: read-out: DIZ
Aspergillus clavatus [4] = assay: Antimicrobial activity against Aspergillus clavatus MTCC 1323 assessed as diameter of growth inhibition zone at 100 ug/ml after 48-96 hr by agar cup diffusion method; settings: read-out: DIZ
Candida albicans [5] = assay: Antimicrobial activity against Candida albicans MTCC 227 assessed as diameter of growth inhibition zone at 100 ug/ml after 48-96 hr by agar cup diffusion method; settings: read-out: DIZ
Penicillium [6] = assay: Antimicrobial activity against Penicillium wild strain assessed as diameter of growth inhibition zone at 50 ug/ml after 48-96 hr by agar cup diffusion method; settings: read-out: DIZ
Trichophyton rubrum [7] = assay: Antimicrobial activity against Trichophyton rubrum MTCC 296 assessed as diameter of growth inhibition zone at 50 ug/ml after 48-96 hr by agar cup diffusion method; settings: read-out: DIZ
Aspergillus clavatus [8] = assay: Antimicrobial activity against Aspergillus clavatus MTCC 1323 assessed as diameter of growth inhibition zone at 50 ug/ml after 48-96 hr by agar cup diffusion method; settings: read-out: DIZ
Candida albicans [9] = assay: Antimicrobial activity against Candida albicans MTCC 227 assessed as diameter of growth inhibition zone at 50 ug/ml after 48-96 hr by agar cup diffusion method; settings: read-out: DIZ
Penicillium [10] = assay: Antimicrobial activity against Penicillium wild strain assessed as diameter of growth inhibition zone at 25 ug/ml after 48-96 hr by agar cup diffusion method; settings: read-out: DIZ
Trichophyton rubrum [11] = assay: Antimicrobial activity against Trichophyton rubrum MTCC 296 assessed as diameter of growth inhibition zone at 25 ug/ml after 48-96 hr by agar cup diffusion method; settings: read-out: DIZ
Aspergillus clavatus [12] = assay: Antimicrobial activity against Aspergillus clavatus MTCC 1323 assessed as diameter of growth inhibition zone at 25 ug/ml after 48-96 hr by agar cup diffusion method; settings: read-out: DIZ
Candida albicans [13] = assay: Antimicrobial activity against Candida albicans MTCC 227 assessed as diameter of growth inhibition zone at 25 ug/ml after 48-96 hr by agar cup diffusion method; settings: read-out: DIZ
Penicillium [14] = assay: Antimicrobial activity against Penicillium wild strain by agar cup diffusion method
Aspergillus clavatus [15] = assay: Antimicrobial activity against Aspergillus clavatus MTCC 1323 by agar cup diffusion method
Pseudomonas aeruginosa [16] = assay: Antimicrobial activity against Pseudomonas aeruginosa MTCC 1688 assessed as diameter of growth inhibition zone at 25 ug/ml after 18-24 hr by agar cup diffusion method; settings: read-out: DIZ
Escherichia coli [17] = assay: Antimicrobial activity against Escherichia coli MTCC 443 assessed as diameter of growth inhibition zone at 25 ug/ml after 18-24 hr by agar cup diffusion method; settings: read-out: DIZ
Staphylococcus aureus [18] = assay: Antimicrobial activity against Staphylococcus aureus MTCC 96 assessed as diameter of growth inhibition zone at 25 ug/ml after 18-24 hr by agar cup diffusion method; settings: read-out: DIZ
Streptococcus pyogenes [19] = assay: Antimicrobial activity against Streptococcus pyogenes MTCC 442 assessed as diameter of growth inhibition zone at 25 ug/ml after 18-24 hr by agar cup diffusion method; settings: read-out: DIZ
Klebsiella pneumoniae [20] = assay: Antimicrobial activity against Klebsiella pneumoniae MTCC 109 by agar cup diffusion method
Escherichia coli [21] = assay: Antimicrobial activity against Escherichia coli MTCC 443 by agar cup diffusion method
Pseudomonas aeruginosa [22] = assay: Antimicrobial activity against Pseudomonas aeruginosa MTCC 1688 by agar cup diffusion method
Staphylococcus aureus [23] = assay: Antimicrobial activity against Staphylococcus aureus MTCC 96 by agar cup diffusion method
Streptococcus pyogenes [24] = assay: Antimicrobial activity against Streptococcus pyogenes MTCC 442 by agar cup diffusion method
Trichophyton rubrum [25] = assay: Antimicrobial activity against Trichophyton rubrum MTCC 296 by agar cup diffusion method
Candida albicans [26] = assay: Antimicrobial activity against Candida albicans MTCC 227 by agar cup diffusion method
Klebsiella pneumoniae [27] = assay: Antimicrobial activity against Klebsiella pneumoniae MTCC 109 assessed as diameter of growth inhibition zone at 250 ug/ml after 18-24 hr by agar cup diffusion method; settings: read-out: DIZ
Pseudomonas aeruginosa [28] = assay: Antimicrobial activity against Pseudomonas aeruginosa MTCC 1688 assessed as diameter of growth inhibition zone at 250 ug/ml after 18-24 hr by agar cup diffusion method; settings: read-out: DIZ
Escherichia coli [29] = assay: Antimicrobial activity against Escherichia coli MTCC 443 assessed as diameter of growth inhibition zone at 250 ug/ml after 18-24 hr by agar cup diffusion method; settings: read-out: DIZ
Staphylococcus aureus [30] = assay: Antimicrobial activity against Staphylococcus aureus MTCC 96 assessed as diameter of growth inhibition zone at 250 ug/ml after 18-24 hr by agar cup diffusion method; settings: read-out: DIZ
Streptococcus pyogenes [31] = assay: Antimicrobial activity against Streptococcus pyogenes MTCC 442 assessed as diameter of growth inhibition zone at 250 ug/ml after 18-24 hr by agar cup diffusion method; settings: read-out: DIZ
Klebsiella pneumoniae [32] = assay: Antimicrobial activity against Klebsiella pneumoniae MTCC 109 assessed as diameter of growth inhibition zone at 100 ug/ml after 18-24 hr by agar cup diffusion method; settings: read-out: DIZ
Pseudomonas aeruginosa [33] = assay: Antimicrobial activity against Pseudomonas aeruginosa MTCC 1688 assessed as diameter of growth inhibition zone at 100 ug/ml after 18-24 hr by agar cup diffusion method; settings: read-out: DIZ
Escherichia coli [34] = assay: Antimicrobial activity against Escherichia coli MTCC 443 assessed as diameter of growth inhibition zone at 100 ug/ml after 18-24 hr by agar cup diffusion method; settings: read-out: DIZ
Staphylococcus aureus [35] = assay: Antimicrobial activity against Staphylococcus aureus MTCC 96 assessed as diameter of growth inhibition zone at 100 ug/ml after 18-24 hr by agar cup diffusion method; settings: read-out: DIZ
Streptococcus pyogenes [36] = assay: Antimicrobial activity against Streptococcus pyogenes MTCC 442 assessed as diameter of growth inhibition zone at 100 ug/ml after 18-24 hr by agar cup diffusion method; settings: read-out: DIZ
Klebsiella pneumoniae [37] = assay: Antimicrobial activity against Klebsiella pneumoniae MTCC 109 assessed as diameter of growth inhibition zone at 50 ug/ml after 18-24 hr by agar cup diffusion method; settings: read-out: DIZ
Pseudomonas aeruginosa [38] = assay: Antimicrobial activity against Pseudomonas aeruginosa MTCC 1688 assessed as diameter of growth inhibition zone at 50 ug/ml after 18-24 hr by agar cup diffusion method; settings: read-out: DIZ
Escherichia coli [39] = assay: Antimicrobial activity against Escherichia coli MTCC 443 assessed as diameter of growth inhibition zone at 50 ug/ml after 18-24 hr by agar cup diffusion method; settings: read-out: DIZ
Staphylococcus aureus [40] = assay: Antimicrobial activity against Staphylococcus aureus MTCC 96 assessed as diameter of growth inhibition zone at 50 ug/ml after 18-24 hr by agar cup diffusion method; settings: read-out: DIZ
Streptococcus pyogenes [41] = assay: Antimicrobial activity against Streptococcus pyogenes MTCC 442 assessed as diameter of growth inhibition zone at 50 ug/ml after 18-24 hr by agar cup diffusion method; settings: read-out: DIZ
Klebsiella pneumoniae [42] = assay: Antimicrobial activity against Klebsiella pneumoniae MTCC 109 assessed as diameter of growth inhibition zone at 25 ug/ml after 18-24 hr by agar cup diffusion method; settings: read-out: DIZ
Trichophyton rubrum [43] = assay: Antimicrobial activity against Trichophyton rubrum MTCC 296 assessed as diameter of growth inhibition zone at 250 ug/ml after 48-96 hr by agar cup diffusion method; settings: read-out: DIZ
Aspergillus clavatus [44] = assay: Antimicrobial activity against Aspergillus clavatus MTCC 1323 assessed as diameter of growth inhibition zone at 250 ug/ml after 48-96 hr by agar cup diffusion method; settings: read-out: DIZ
Candida albicans [45] = assay: Antimicrobial activity against Candida albicans MTCC 227 assessed as diameter of growth inhibition zone at 250 ug/ml after 48-96 hr by agar cup diffusion method; settings: read-out: DIZ

SMILES: COc1ccc(/C=C/C(=O)C2C(=O)NC(=S)NC2=O)cc1OC
- zone of inhibition at 250 µg/mL (Penicillium [1]): 24 mm
- zone of inhibition at 100 µg/mL (Penicillium [2]): 22 mm
- zone of inhibition at 100 µg/mL (Trichophyton rubrum [3]): 23 mm
- zone of inhibition at 100 µg/mL (Aspergillus clavatus [4]): 21 mm
- zone of inhibition at 100 µg/mL (Candida albicans [5]): 25 mm
- zone of inhibition at 50 µg/mL (Penicillium [6]): 20 mm
- zone of inhibition at 50 µg/mL (Trichophyton rubrum [7]): 22 mm
- zone of inhibition at 50 µg/mL (Aspergillus clavatus [8]): 20 mm
- zone of inhibition at 50 µg/mL (Candida albicans [9]): 24 mm
- zone of inhibition at 25 µg/mL (Penicillium [10]): 19 mm
- zone of inhibition at 25 µg/mL (Trichophyton rubrum [11]): 21 mm
- zone of inhibition at 25 µg/mL (Aspergillus clavatus [12]): 18 mm
- zone of inhibition at 25 µg/mL (Candida albicans [13]): 20 mm
- MFC (Penicillium [14]): 1000 mg/L (≈ 2990 µM)
- MIC (Penicillium [14]): 1000 mg/L (≈ 2990 µM)
- MFC (Aspergillus clavatus [15]): 1000 mg/L (≈ 2990 µM)
- MIC (Aspergillus clavatus [15]): 1000 mg/L (≈ 2990 µM)
- zone of inhibition at 25 µg/mL (Pseudomonas aeruginosa [16]): 11 mm
- zone of inhibition at 25 µg/mL (Escherichia coli [17]): 12 mm
- zone of inhibition at 25 µg/mL (Staphylococcus aureus [18]): 11 mm
- zone of inhibition at 25 µg/mL (Streptococcus pyogenes [19]): 12 mm
- MBC (Klebsiella pneumoniae [20]): 500 mg/L (≈ 1500 µM)
- MIC (Klebsiella pneumoniae [20]): 250 mg/L (≈ 748 µM)
- MBC (Escherichia coli [21]): 500 mg/L (≈ 1500 µM)
- MIC (Escherichia coli [21]): 500 mg/L (≈ 1500 µM)
- MBC (Pseudomonas aeruginosa [22]): 200 mg/L (≈ 598 µM)
- MIC (Pseudomonas aeruginosa [22]): 200 mg/L (≈ 598 µM)
- MBC (Staphylococcus aureus [23]): 500 mg/L (≈ 1500 µM)
- MIC (Staphylococcus aureus [23]): 500 mg/L (≈ 1500 µM)
- MBC (Streptococcus pyogenes [24]): 100 mg/L (≈ 299 µM)
- MIC (Streptococcus pyogenes [24]): 62.5 mg/L (≈ 187 µM)
- MFC (Trichophyton rubrum [25]): 500 mg/L (≈ 1500 µM)
- MIC (Trichophyton rubrum [25]): 500 mg/L (≈ 1500 µM)
- MFC (Candida albicans [26]): 1000 mg/L (≈ 2990 µM)
- MIC (Candida albicans [26]): 500 mg/L (≈ 1500 µM)
- zone of inhibition at 250 µg/mL (Klebsiella pneumoniae [27]): 19 mm
- zone of inhibition at 250 µg/mL (Pseudomonas aeruginosa [28]): 20 mm
- zone of inhibition at 250 µg/mL (Escherichia coli [29]): 21 mm
- zone of inhibition at 250 µg/mL (Staphylococcus aureus [30]): 20 mm
- zone of inhibition at 250 µg/mL (Streptococcus pyogenes [31]): 21 mm
- zone of inhibition at 100 µg/mL (Klebsiella pneumoniae [32]): 18 mm
- zone of inhibition at 100 µg/mL (Pseudomonas aeruginosa [33]): 18 mm
- zone of inhibition at 100 µg/mL (Escherichia coli [34]): 18 mm
- zone of inhibition at 100 µg/mL (Staphylococcus aureus [35]): 18 mm
- zone of inhibition at 100 µg/mL (Streptococcus pyogenes [36]): 18 mm
- zone of inhibition at 50 µg/mL (Klebsiella pneumoniae [37]): 15 mm
- zone of inhibition at 50 µg/mL (Pseudomonas aeruginosa [38]): 15 mm
- zone of inhibition at 50 µg/mL (Escherichia coli [39]): 16 mm
- zone of inhibition at 50 µg/mL (Staphylococcus aureus [40]): 15 mm
- zone of inhibition at 50 µg/mL (Streptococcus pyogenes [41]): 16 mm
- zone of inhibition at 25 µg/mL (Klebsiella pneumoniae [42]): 14 mm
- zone of inhibition at 250 µg/mL (Trichophyton rubrum [43]): 24 mm
- zone of inhibition at 250 µg/mL (Aspergillus clavatus [44]): 23 mm
- zone of inhibition at 250 µg/mL (Candida albicans [45]): 25 mm
